Laboratory results as given in US20250186463A1, “ABIRATERONE DECANOATE PRODRUGS AND USE IN THERAPY” (PROPELLA THERAPEUTICS, INC., priority 2022, published 2025).

How the values were obtained:
[1] = Animal studies of intramuscular abiraterone decanoate: liver toxicity; format: in vivo; conditions: intramuscular administration, tested doses
[2] = Phase 1/2a study: safety and tolerability; format: in vivo, human
From the text: At each dose cohort, 3 to 4 patients will be enrolled. If none of the patients experience a dose-limiting toxicity (DLT) in the first 28 days (the DLT period) the dose will be escalated in the next cohort. A DLT will be defined as any of the following using on the Common Terminology Criteria for Adverse Events (CTCAE) criteria v5.0 regardless of attribution to the study drug unless it is clearly due to the patient's underlying disease or extraneous causes:
Safety Analysis: Adverse events will be summarized by severity, seriousness, and relationship to study treatments. Laboratory data, vital signs, PFTs and ECGs will be compared to baseline values.

[3] = test system: serum DHEA-S, DHEA, androstenedione; assay: Phase 1/2a study: serum DHEA-S, DHEA, androstenedione; format: in vivo, human
From the text: (§1) Pharmacodynamic Analysis: Determination of Prostate Specific Antigen (PSA), serum testosterone, dehydroepiandrosterone (DHEA), dehydroepiandrosterone sulfate (DHEA-S), androstenedione, dihydrotestosterone (DHT), progesterone, cortisol, adrenocorticotropic hormone (ACTH), corticosterone, 11-dexoycorticosterone (11-DOC) and 11-deoxycortisol.

serum corticosterone = assay: Phase 1/2a study: serum corticosterone; format: in vivo, human
Procedure: This is a Phase 1/2a, Open-label, Multicenter Study of Intramuscular Abiraterone Decanoate Depot in Patients with Advanced Prostate Cancer.
Formulations and dosing regimen: The formulation used in the study (abiraterone decanoate for intramuscular [i.m.] injection) is a solution formulation of abiraterone decanoate at a concentration of 180 mg/mL and will be provided as a 10 mL vial containing 990 mg of abiraterone decanoate in 5.5 mL of solution. See further details of the formulations in Example 2 (for each milliliter: Abiraterone Decanoate, about 180 mg/mL; Benzyl Alcohol, about 100 mg/mL; Benzyl Benzoate, about 200 mg/mL; and Corn oil, q.s. to 1 mL). Abiraterone Decanoate will be administered as an i.m. injection every 84 days (±3 days). Dose escalation will proceed with a modified Fibonacci sequence. Based on emerging data, intermediate doses may be evaluated.
Study Design: This is a Phase 1/2a, Open-label, Multicenter Study of Intramuscular Abiraterone Decanoate Depot in Patients with Advanced Prostate Cancer. In Phase 1, all patients will receive i.m. Abiraterone Decanoate depot in 84-day treatment cycles combined with daily oral prednisone or dexamethasone. In Phase 2a, patients will be randomized 1:1 and treated with i.m. Abiraterone Decanoate depot in 84-day treatment cycles in combination with dexamethasone (Arm A) or abiraterone acetate daily+prednisone (Arm B). In both Phases, patients will undergo scheduled periodic assessments of serum testosterone levels. Participants may continue treatment until they meet any discontinuation criteria outlined in the protocol.
as §1
Based on the available data, the recommended dose for Phase 2 is about 1260 mg abiraterone decanoate once every three months (12 weeks). All cohorts 1 and 2 in this clinical study were treated with prednisone, 5 mg orally once or twice daily; and all cohorts 3-5 were treated with dexamethasone, 0.5 mg orally once daily. The results shown herein for these cohorts should be understood accordingly.
See also Table 3B below. […] See also FIG. 11B for the absolute serum progesterone levels for cohorts 4 and 5, with the LLOQ being 1.59 nM. It should be noted that the maximum serum progesterone level observed for cohorts 1-3 is 2.5 nM. FIGS. 3F and 3G show the serum 11-deoxycorticosterone and corticosterone response in cohorts 3, 4, and 5, the trend is similar to that observed for progesterone levels above. See a summary shown in the Table 3C below for the first cycle.

lymph node lesions = assay: Follow-up analysis and post-study PET/CT scan (Patient 1); format: in vivo, human; conditions: Patient 1, 180 mg, CSPC; enzalutamide started after study
Procedure: Patient 1. This patient is in cohort 1, which was administered 180 mg of abiraterone decanoate. This patient is […], with CSPC, with a Gleason score ≤6, who entered the study with left common iliac and femoral lymph node involvement and measurable PSA. The patient received degarelix (March thru May 2021) and leuprolide (starting June 2021). Abiraterone decanoate was injected to the patient on Jul. […] On Sep. 24, 2021, this patient started enzalutamide (Xtandi) treatment.

For CCCCCCCCCC(=O)O[C@H]1CC[C@@]2(C)C(=CC[C@@H]3[C@@H]2CC[C@]2(C)C(c4cccnc4)=CC[C@@H]32)C1 [abiraterone decanoate], the liver toxicity [1] was “no liver toxicity was observed”, the “increases in upstream steroids from CYP17A1 hydroxylase, compared with Zytiga” value ([2]; Phase 1 study) was “far less than observed with Zytiga” and the “safety issues relating to mineralocorticoid excess” value ([2]; Phase 1 study, to date) was “no safety issues relating to mineralocorticoid excess”. The safety profile ([2]; all cohorts 1-5) was “excellent”, the “tolerability in human subjects” value ([2]; in vivo) was “generally well tolerated” and the “serum DHEA-S level vs baseline” value ([3]; cohorts 1-5, FIG. 3B) was “significantly reduced”. For the same molecule, the “serum DHEA level vs baseline” value ([3]; cohorts 1-5, FIG. 3C) was “significantly reduced”, the “serum androstenedione level vs baseline” value ([3]; cohorts 1-5, FIG. 3D) was “significantly reduced” and the “Corticosterone Changes during cycle 1, Percent (%)” value (serum corticosterone; 720 mg (N = 4), Day 14) was 48%. The “Corticosterone Changes during cycle 1, Percent (%)” value (serum corticosterone; 720 mg (N = 4), Day 28) was 27%, the “Corticosterone Changes during cycle 1, Percent (%)” value (serum corticosterone; 720 mg (N = 4), Day 56) was 9% and the “Corticosterone Changes during cycle 1, Percent (%)” value (serum corticosterone; 720 mg (N = 4), Day 84) was −33%. The “Corticosterone Changes during cycle 1, Percent (%)” value (serum corticosterone; 1,260 mg (N = 6), Day 14) was 184%, the “Corticosterone Changes during cycle 1, Percent (%)” value (serum corticosterone; 1,260 mg (N = 6), Day 28) was 490% and the “Corticosterone Changes during cycle 1, Percent (%)” value (serum corticosterone; 1,260 mg (N = 6), Day 56) was 19%. The “Corticosterone Changes during cycle 1, Percent (%)” value (serum corticosterone; 1,260 mg (N = 6), Day 84) was 32%, the “Corticosterone Changes during cycle 1, Percent (%)” value (serum corticosterone; 1,800 mg (N = 8), Day 14) was 455% and the “Corticosterone Changes during cycle 1, Percent (%)” value (serum corticosterone; 1,800 mg (N = 8), Day 28) was 259%. The “Corticosterone Changes during cycle 1, Percent (%)” value (serum corticosterone; 1,800 mg (N = 8), Day 56) was 54%, the “Corticosterone Changes during cycle 1, Percent (%)” value (serum corticosterone; 1,800 mg (N = 8), Day 84) was 109% and the “lymph node lesions on post-study PET/CT scan” value (lymph node lesions) was “complete resolution of prior lymph node lesions”.
